Measured values reported in ChEMBL document CHEMBL6134785, “New ATP-competitive inhibitors of E. coli GyrB obtained from the mapping of the hydrophobic floor at the binding site: synthesis and biological evaluation” (RSC Med Chem, 2024).

biological target: DNA gyrase (Escherichia coli, UniProt P0AES4+P0AES6); assay: Inhibition of Escherichia coli DNA gyrase supercoiling activity incubated for 30 mins in presence of spermidine/ATP by fluorescence based analysis; format: protein-complex assay

| IC50 [nM] | SMILES |
| --- | --- |
| 19 | O=C(O)C(=O)Nc1ccc2nc(N(Cc3ccccc3)C(=O)c3cc(Br)c(Br)[nH]3)sc2c1 |
| 96 | O=C(O)C(=O)Nc1ccc2nc(N(Cc3cccc(C(=O)O)c3)C(=O)c3cc(Br)c(Br)[nH]3)sc2c1 |
| 134 | O=C(O)C(=O)Nc1ccc2c(c1)s/c(=N\C(=O)c1cc(Br)c(Br)[nH]1)n2Cc1ccccc1 |
